Test results: patent publication US20120202231A1, “SYNERGISTIC BIOMARKER ASSAY OF NEUROLOGICAL CONDITION USING S-100B” (priority 2009, published 2012)

Test system: Female Sprague-Dawley rats
Details: for GFAP level relative to control animals / S-100b level relative to control animals / UCH-L1 level relative to control animals: rats, biofluids, 30, 60, 90, 120 min after dosing
Procedure: Acute oral In vivo drug candidate screening for neurotoxicity. […] A total of four to eight animals of are used for each dose level investigated.
At 30, 60, 90, and 120 minutes following dosing, the rats are sacrificed by decapitation and blood is obtained by cardiac puncture. The levels of biofluids S-100β, UCH-L1, and GFAP are analyzed by sandwich ELISA or western blot by using biomarker specific antibodies.

| Compound | GFAP level relative to control animals | S-100b level relative to control animals | UCH-L1 level relative to control animals | CSF concentration of GFAP relative to control animals (rat, in vivo) | CSF concentration of UCH-L1 relative to control animals (rat, in vivo) |
| --- | --- | --- | --- | --- | --- |
| CN1CC=C(c2ccccc2)CC1 [MPTP] | increase | increase | increase | – | – |
| C=C(C)[C@H]1CN[C@H](C(=O)O)[C@H]1CC(=O)O [kainic acid] | increase | increase | increase | – | – |
| N.N.[Cl][Pt][Cl] [Cisplatin, cisplatin] | increase | increase | increase | – | – |
| CN[C@@H](C)Cc1ccccc1 [methamphetamine] | – | Modest increase | – | increase | increase |
